Patent US8426587B2, “Haloallylamine inhibitors of SSAO/VAP-1 and uses therefor” (Pharmaxis Ltd., priority 2007, dated 2013)
Structures can show the parent of a compound that is named as a salt.

Experiments:
[1] = target: T1, Mouse SSAO/VAP-1 (Mus musculus, UniProt O70423); test: Inhibition of amine oxidase activity of mouse SSAO/VAP-1 (3T3-L1 adipocytes, Amplex Red); assay type: biochemical; conditions: 3T3-L1 adipocyte SSAO, 40 μM benzylamine
T1 construct: Adipocytes were used as an SSAO source either as adherent cells or as a homogenate; endogenous in cells; host or cells: 3T3-L1 murine fibroblasts (ATCC) differentiated into adipocytes
T1 sequence (O70423 1-765): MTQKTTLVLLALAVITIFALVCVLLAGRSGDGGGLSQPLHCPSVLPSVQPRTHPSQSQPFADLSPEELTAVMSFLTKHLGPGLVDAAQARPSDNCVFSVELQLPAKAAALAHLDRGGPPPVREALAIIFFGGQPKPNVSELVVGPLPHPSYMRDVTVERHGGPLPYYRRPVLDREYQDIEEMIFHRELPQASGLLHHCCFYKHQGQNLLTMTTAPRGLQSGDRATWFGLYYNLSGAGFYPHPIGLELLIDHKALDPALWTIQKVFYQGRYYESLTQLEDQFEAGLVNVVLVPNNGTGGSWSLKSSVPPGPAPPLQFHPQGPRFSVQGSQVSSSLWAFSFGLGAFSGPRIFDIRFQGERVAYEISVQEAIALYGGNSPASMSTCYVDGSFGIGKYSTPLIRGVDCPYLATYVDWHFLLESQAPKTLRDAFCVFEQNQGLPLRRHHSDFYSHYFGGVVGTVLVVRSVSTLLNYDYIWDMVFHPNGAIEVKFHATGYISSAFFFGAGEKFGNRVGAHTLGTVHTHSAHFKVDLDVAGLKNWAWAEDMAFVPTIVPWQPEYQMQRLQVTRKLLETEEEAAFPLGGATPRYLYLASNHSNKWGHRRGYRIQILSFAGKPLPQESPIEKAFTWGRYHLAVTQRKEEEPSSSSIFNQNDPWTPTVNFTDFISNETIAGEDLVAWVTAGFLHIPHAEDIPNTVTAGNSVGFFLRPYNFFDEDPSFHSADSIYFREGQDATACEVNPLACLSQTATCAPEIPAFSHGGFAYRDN
Excerpt: 3T3-L1 Murine fibroblasts were purchased from the American Type Culture Collection (ATCC, Rockville, Md.). Dulbecco's Modified Eagle Medium (DMEM) and fetal calf serum (FCS), antibiotics and Amplex® Red were obtained from Invitrogen (Carlsbad, Calif.). Tissue culture plastics and black clear-bottom 96 well plates were from BD Falcon (Bedford, Mass.). Bicinchoninic acid (BCA) reagent was from Pierce (Rockford, Ill.). All other materials were obtained from Sigma (St. Louis, Mo.).
3T3-L1 Fibroblasts were cultured in DMEM supplemented with 10% heat-inactivated FCS, 2 mM L-glutamine, 100 U/L penicillin and 100 μg/L streptomycin at 37° C. in 5% CO2. For differentiation into adipocytes, fibroblasts were cultured in DMEM with FCS for 1 or 2 days postconfluence, after which the cells were cultured for 3 days in DMEM containing 10% FCS, 350 nM insulin, 0.5 mM 3-isobutyl-1-methylxanthine, 250 nM dexamethasone, and 400 nM biotin and for 3 days in DMEM containing 10% FCS and 350 nM insulin. After differentiation, adipocytes were maintained in DMEM supplemented with 10% FCS. Adipocytes were used for experiments 8 to 11 days after the onset of differentiation, and the medium was renewed 2 or 3 days prior to each experiment. For culturing in black clear-bottom 96-well plates, cells were seeded at a 1:1 cell surface ratio, and differentiation was initiated 4 days postseeding. Cells were used between days 6-12 post-differentiation and between passages 7 and 20. Adipocytes were used as an SSAO source either as adherent cells or as a homogenate.
To prepare homogenate, 10 cm dishes of adipocytes were washed with HES buffer (20 mM HEPES, 1 mM EDTA, 250 mM sucrose, pH 7.4) and scraped in HES buffer containing 10 μg/mL leupeptin, 10 μM pepstatin and 1 mM PMSF. Cells were lysed by passage through a 23 G needle followed by passage through a 27 G needle. The lysate was spun at 500 g for 5 min and fat was removed. Protein concentration of the supernatant was measured using a BCA assay according to the manufacturer's instructions. The homogenate was stored at −80° C. until needed.
To measure the SSAO activity, adipocyte homogenate (0.5 mg/mL) or adipocytes (adhering cells) containing 0.5 mM pargyline, or purified human SSAO was incubated in 0.1 M sodium phosphate buffer pH 7.4 with varying concentrations of test compounds for 30 min at 37° C. The homogenate was then incubated at 37° C. with 60 μM Amplex® Red, 0.75 U/mL HRP and 40 μM benzylamine (mouse SSAO) or 300 μM benzylamine (human SSAO) and the formation of resorufin was measured (excitation range 530-560 nm and emission at 590 nm) every 10 min in either a Tecan Infinite 200 or a BMG plate reader. The IC50 values were estimated using Graphpad Prism software. The IC50 is an estimation of the concentration of the test compound to inhibit the amine oxidase activity of SSAO/VAP-1 by 50%. The IC50 values of certain invention compounds are included in Table 1.

[2] = target: T2, Human MAO-B (Homo sapiens, UniProt P27338); test: Inhibition of recombinant MAO-B (Amplex Red); assay type: biochemical; conditions: 50 μM benzylamine
T2 sequence (P27338 1-520): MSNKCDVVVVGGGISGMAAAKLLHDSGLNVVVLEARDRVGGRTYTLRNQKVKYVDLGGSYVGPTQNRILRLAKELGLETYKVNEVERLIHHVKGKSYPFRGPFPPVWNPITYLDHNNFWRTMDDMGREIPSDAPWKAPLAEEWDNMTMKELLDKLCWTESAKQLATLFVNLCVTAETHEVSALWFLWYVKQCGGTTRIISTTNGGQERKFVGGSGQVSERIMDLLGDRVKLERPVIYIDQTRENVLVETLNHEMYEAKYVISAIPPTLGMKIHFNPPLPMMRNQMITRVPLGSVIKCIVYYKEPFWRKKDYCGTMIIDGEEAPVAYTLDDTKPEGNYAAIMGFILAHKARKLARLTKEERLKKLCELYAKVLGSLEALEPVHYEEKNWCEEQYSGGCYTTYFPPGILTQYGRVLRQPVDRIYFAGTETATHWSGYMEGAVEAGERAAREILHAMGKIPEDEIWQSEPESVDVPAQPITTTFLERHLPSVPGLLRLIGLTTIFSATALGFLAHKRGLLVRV
Experimental: Recombinant MAO-B was incubated in 0.1 M sodium phosphate buffer pH 7.4 with varying concentration of test compounds for 30 min at 37° C. The homogenate/protein was then incubated at 37° C. with […] Amplex® Red, 0.75 U/ml HRP and 40 μM benzylamine (mouse SSAO), 300 μM benzylamine (human SSAO), 100 μM tyramine (MAO-A) or 50 μM benzylamine (MAO-B) and the formation of resorufin was measured (excitation range 530-560 nm and emission at 590 nm) every 5 min in either a Tecan Infinite 200 or a BMG Fluorostar Optima platereader. IC50 were estimated using Graphpad Prism software.

[3] = system: experimental autoimmune encephalomyelitis; conditions: reported in US 2006/0025438 A1; cited from earlier work

Row | SMILES | IC50 ([1]; 30 min at 37° C. preincubation) [µM] | IC50 ([2]; 30 min at 37° C. preincubation) [µM] | IC50 [1] [µM] | IC50 [2] [µM] | Inhibition of experimental autoimmune encephalomyelitis [3]
1 | C[C@H](NS(=O)(=O)c1ccc(OC/C(F)=C\CN)cc1)c1ccccc1.Cl [(S,E)-4-(4-Amino-2-fluorobut-2-enyloxy)-N-(1-phenylethyl)benzenesulfonamide] | < 1 | < 1 |  |  | 
2 | NC/C(=C/F)CCc1ccc(F)cc1 [Mofegiline, reference compound] |  |  | 0.001 | 0.004 | inhibit experimental autoimmune encephalomyelitis
3 | CS(=O)(=O)c1ccc(OC/C(F)=C\CN)cc1.Cl [(E)-3-Fluoro-4-(4-(methylsulfonyl)phenoxy)but-2-en-1-amine hydrochloride] | < 1 | < 100 |  |  | 
4 | Cc1nc2cc(OC/C(F)=C\CN)ccc2s1.Cl [(E)-3-Fluoro-4-(2-methylbenzo[d]thiazol-5-yloxy)but-2-en-1-amine hydrochloride] | < 1 | < 100 |  |  | 
5 | NC/C=C(/F)COc1ccc(C(=O)NC2CCCCC2)cc1 [(E)-4-(4-amino-2-fluorobut-2-enyloxy)-N-cyclohexylbenzamide hydrochloride] | < 1 | < 1 |  |  | 
